The data set is described as follows: Amount of GLCN present following heating (HPAEC-PAD recovery). The format is physicochemical. How it is done: To determine the amount of GLCN that remains following exposing GLCN beverages to a high temperature, such as those used in pasteurization, the following methods were used.
A beverage sample as described in the preceding examples containing […] of GLCN was dispersed in 25 g of 1.0 N HCl in a 50-mL polypropylene centrifuge tube and capped tightly. The sample was mixed for 30 seconds using a vortex mixer, then placed in a water bath at 37° C. The sample was removed from the water bath at 15-minute intervals, mixed for 30 seconds on a vortex mixer, then returned to the water bath. This cycle was repeated until the sample had been in the water bath for one hour.
After heating, the sample was mixed for 30 seconds on a vortex mixer, then centrifuged for 10 minutes to separate the liquid and solid phases. Fats, oils or lipids in the sample formed a third layer at the top of the tube. A 1-g aliquot of the aqueous sample portion was diluted 100-fold with deionized water, then transferred to an autosampler vial with filter cap.
The free glucosamine in prepared samples was determined using high performance anion-exchange chromatography with pulsed amperometric detection ([…]). The system included an EG40 eluent generator, GP50 gradient pump, AS40 autosampler, LC25 column oven, and ED40 electrochemical detector, all produced by Dionex Corporation (Sunnyvale, Calif.).
The method was adapted from Dionex Corporation Technical Note 40. A Dionex CarboPac PA-20 column was used in place of the PA-10 described in the Technical Note. The eluent was 8 mM KOH at 0.5 mL/min. The column and detector were maintained at 30° C. The injection volume was 10 μL. The standard was glucosamine hydrochloride at 10.8 mg/L. Fermentation broth samples were diluted five-fold with deionized water, ASTM Type II, and filtered through 0.2 μ vial filters in the autosampler. Multiple standards were analyzed before and after each sample set.

Take `N[C@H]1C(O)O[C@H](CO)[C@@H](O)[C@@H]1O` (some centres unmarked) [GLCN, glucosamine]: the “% GlcNHCl Recovered” value was found to be 102% (Grape juice, boil, 5 min); 101% (Lemonade, 71 ° C., 20 min); 101% (Lemonade, 90 ° C., 20 sec); 100% (Lemonade, boil, 5 min); 102% (Lemonade, room temperature).

Source of the values: US20060058263A1, “Heat pasturized liquids containing glucosamine” (priority 2002, published 2006).
